According to patent US11006631B2, “Substituted pyrimidinyloxy pyridine derivatives as herbicides” (FMC Corporation, priority 2015, dated 2021):

Tests used:
Format in all cases: in vivo
[1] = tested on: pigweed (Amaranthus retroflexus); test: Test A postemergence, pigweed; conditions: 0 to 100 scale
How it was run: (§1)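 Seeds sown in loam–sand blend received a preemergence directed soil spray; postemergence plants at one- to two-leaf stage (2 to 10 cm) were sprayed. Compounds formulated in non-phytotoxic solvent with surfactant. Injury rated visually versus untreated controls after approximately 10 days in greenhouse, 0 (no effect) to 100 (complete control).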

[2] = tested on: barnyardgrass (Echinochloa crus-galli); test: Test A preemergence, barnyardgrass; conditions: 0 to 100 scale
How it was run: as §1

[3] = tested on: crabgrass, large (large crabgrass, Digitaria sanguinalis); test: Test A postemergence, crabgrass, large; conditions: 0 to 100 scale
Excerpt: (§2) Seeds of plant species selected from bamyardgrass (Echinochloa crus-galli), kochia (Kochia scoparia), ragweed (common ragweed, Ambrosia elatior), ryegrass, Italian (Italian ryegrass, Lolium multiflorum), foxtail, giant (giant foxtail, Setaria faberii), pigweed (Amaranthus retroflexus), crabgrass, large (large crabgrass, Digitaria sanguinalis), momingglory (Ipomoea spp.), velvetleaf (Abutilon theophrasti), wheat (Triticum aestivum), and corn (Zea mays) were planted into a blend of loam soil and sand and treated preemergence with a directed soil spray using test chemicals formulated in a non-phytotoxic solvent mixture which included a surfactant. At the same time, plants selected from these crop and weed species and also blackgrass (Alopecurus myosuroides), and galium (catchweed bedstraw, Galium aparine) were planted in pots containing the same blend of loam soil and sand and treated with postemergence applications of test chemicals formulated in the same manner. Plants ranged in height from 2 to 10 cm and were in the one- to two-leaf stage for the postemergence treatment. Treated plants and untreated controls were maintained in a greenhouse for approximately 10 days, after which time all treated plants were compared to untreated controls and visually evaluated for injury. Plant response ratings, summarized in Table A, are based on a 0 to 100 scale where 0 is no effect and 100 is complete control. A dash (-) response means no test result.

[4] = tested on: ducksalad (Heteranthera limosa); test: Test B flooded paddy test, ducksalad; conditions: Flood, 250 g ai/ha; scale of 0 to 100
How it was run: (§3)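 Treatment was made at the 2-leaf stage by dosing the standing floodwater, kept 3 cm above soil level for the whole test. Greenhouse exposure lasted 13 to 15 days. Response is a visual percent rating relative to controls, where a dash indicates no test result.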

[5] = tested on: wheat (Triticum aestivum); test: Test A postemergence, wheat; conditions: 0 to 100 scale
How it was run: as §1

[6] = tested on: foxtail, giant (giant foxtail, Setaria faberii); test: Test A preemergence, foxtail, giant; conditions: 0 to 100 scale
How it was run: as §1

[7] = tested on: foxtail, giant (giant foxtail, Setaria faberii); test: Test A postemergence, foxtail, giant; conditions: 0 to 100 scale
How it was run: as §1

corn (Zea mays) [8] = test: Test A postemergence, corn; conditions: 0 to 100 scale
How it was run: as §1

[9] = tested on: sedge, umbrella (small-flower umbrella sedge, Cyperus difformis); test: Test B flooded paddy test, sedge, umbrella; conditions: Flood, 250 g ai/ha; scale of 0 to 100
How it was run: as §3

[10] = tested on: pigweed (Amaranthus retroflexus); test: Test A preemergence, pigweed; conditions: 0 to 100 scale
How it was run: as §1

[11] = tested on: velvetleaf (Abutilon theophrasti); test: Test A postemergence, velvetleaf; conditions: 0 to 100 scale
Excerpt: as §2

corn (Zea mays) [12] = test: Test A preemergence, corn; conditions: 0 to 100 scale
Excerpt: as §2

[13] = tested on: barnyardgrass (Echinochloa crus-galli); test: Test B flooded paddy test, barnyardgrass; conditions: Flood, 250 g ai/ha; scale of 0 to 100
How it was run: as §3

rice (Oryza sativa) = test: Test B flooded paddy test, rice; conditions: Flood, 250 g ai/ha; scale of 0 to 100
How it was run: as §3

[14] = tested on: morningglory (Ipomoea spp.); test: Test A postemergence, morningglory; conditions: 0 to 100 scale
Excerpt: as §2

[15] = tested on: crabgrass, large (large crabgrass, Digitaria sanguinalis); test: Test A preemergence, crabgrass, large; conditions: 0 to 100 scale
Excerpt: as §2

[16] = tested on: barnyardgrass (Echinochloa crus-galli); test: Test A postemergence, barnyardgrass; conditions: 0 to 100 scale
How it was run: as §1

[17] = tested on: velvetleaf (Abutilon theophrasti); test: Test A preemergence, velvetleaf; conditions: 0 to 100 scale
Excerpt: as §2

[18] = tested on: morningglory (Ipomoea spp.); test: Test A preemergence, morningglory; conditions: 0 to 100 scale
Excerpt: as §2

[19] = tested on: wheat (Triticum aestivum); test: Test A preemergence, wheat; conditions: 0 to 100 scale
Excerpt: as §2

Structure (SMILES)	Plant response rating, Pigweed ([1]; 125 g ai/ha)	Plant response rating, Pigweed ([1]; 500 g ai/ha)	Plant response rating, Barnyardgrass ([2]; 125 g ai/ha)	Plant response rating, Barnyardgrass ([2]; 500 g ai/ha)	Plant response rating, Crabgrass, Large ([3]; 125 g ai/ha)	Plant response rating, Crabgrass, Large ([3]; 500 g ai/ha)	Plant response rating, Ducksalad [4]	Plant response rating, Wheat ([5]; 125 g ai/ha)	Plant response rating, Wheat ([5]; 500 g ai/ha)	Plant response rating, Foxtail, Giant ([6]; 125 g ai/ha)	Plant response rating, Foxtail, Giant ([6]; 500 g ai/ha)	Plant response rating, Foxtail, Giant ([7]; 125 g ai/ha)	Plant response rating, Foxtail, Giant ([7]; 500 g ai/ha)	Plant response rating, Corn (corn (Zea mays) [8]; 125 g ai/ha)	Plant response rating, Corn (corn (Zea mays) [8]; 500 g ai/ha)	Plant response rating, Sedge, Umbrella [9]	Plant response rating, Pigweed ([10]; 125 g ai/ha)	Plant response rating, Pigweed ([10]; 500 g ai/ha)	Plant response rating, Velvetleaf ([11]; 125 g ai/ha)	Plant response rating, Velvetleaf ([11]; 500 g ai/ha)	further results
Clc1cnc(Oc2cccnc2-n2cc(Cl)cn2)nc1 [Compound 2, 5-chloro-2-[[2-(4-chloro-1H-pyrazol-1-yl)-3-pyridinyl]oxy]pyrimidine]	100	100	0	40	10	40	80	10	20	10	80	0	30	0	10	75	70	90	20	70	Plant response rating, Corn (corn (Zea mays) [12]; 125 g ai/ha): 0; Plant response rating, Corn (corn (Zea mays) [12]; 500 g ai/ha): 0; Plant response rating, Barnyardgrass [13]: 0; Plant response rating, Rice (rice (Oryza sativa)): 0; Plant response rating, Morningglory ([14]; 125 g ai/ha): 40; Plant response rating, Morningglory ([14]; 500 g ai/ha): 80; Plant response rating, Crabgrass, Large ([15]; 500 g ai/ha): 100; Plant response rating, Barnyardgrass ([16]; 125 g ai/ha): 0; Plant response rating, Barnyardgrass ([16]; 500 g ai/ha): 20; Plant response rating, Velvetleaf ([17]; 125 g ai/ha): 10; Plant response rating, Velvetleaf ([17]; 500 g ai/ha): 30; Plant response rating, Morningglory ([18]; 125 g ai/ha): 0; Plant response rating, Morningglory ([18]; 500 g ai/ha): 0; Plant response rating, Wheat ([19]; 125 g ai/ha): 0; Plant response rating, Wheat ([19]; 500 g ai/ha): 10
Cc1cnn(-c2ncccc2Oc2ncc(Cl)cn2)c1 [Compound 3]	10	40	0	0	10	10	0	10	10	0	0	0	10	0	10	60	0	10	10	20	Plant response rating, Corn (corn (Zea mays) [12]; 125 g ai/ha): 0; Plant response rating, Corn (corn (Zea mays) [12]; 500 g ai/ha): 0; Plant response rating, Barnyardgrass [13]: 0; Plant response rating, Rice (rice (Oryza sativa)): 0; Plant response rating, Morningglory ([14]; 125 g ai/ha): 20; Plant response rating, Morningglory ([14]; 500 g ai/ha): 30; Plant response rating, Crabgrass, Large ([15]; 125 g ai/ha): 0; Plant response rating, Crabgrass, Large ([15]; 500 g ai/ha): 0; Plant response rating, Barnyardgrass ([16]; 125 g ai/ha): 0; Plant response rating, Barnyardgrass ([16]; 500 g ai/ha): 10; Plant response rating, Velvetleaf ([17]; 125 g ai/ha): 0; Plant response rating, Velvetleaf ([17]; 500 g ai/ha): 0; Plant response rating, Morningglory ([18]; 125 g ai/ha): 0; Plant response rating, Morningglory ([18]; 500 g ai/ha): 0; Plant response rating, Wheat ([19]; 125 g ai/ha): 0; Plant response rating, Wheat ([19]; 500 g ai/ha): 0
Cc1ccc(Oc2ncc(Cl)cn2)c(-n2cc(Br)cn2)n1 [Compound 10]	10	50	0	0	0	10	0	0	0	0	20	0	0	0	0	0	0	40	50	80	Plant response rating, Corn (corn (Zea mays) [12]; 125 g ai/ha): 0; Plant response rating, Corn (corn (Zea mays) [12]; 500 g ai/ha): 0; Plant response rating, Barnyardgrass [13]: 0; Plant response rating, Rice (rice (Oryza sativa)): 0; Plant response rating, Morningglory ([14]; 125 g ai/ha): 0; Plant response rating, Morningglory ([14]; 500 g ai/ha): 10; Plant response rating, Crabgrass, Large ([15]; 125 g ai/ha): 0; Plant response rating, Crabgrass, Large ([15]; 500 g ai/ha): 50; Plant response rating, Barnyardgrass ([16]; 125 g ai/ha): 0; Plant response rating, Barnyardgrass ([16]; 500 g ai/ha): 0; Plant response rating, Velvetleaf ([17]; 125 g ai/ha): 0; Plant response rating, Velvetleaf ([17]; 500 g ai/ha): 20; Plant response rating, Morningglory ([18]; 125 g ai/ha): 0; Plant response rating, Morningglory ([18]; 500 g ai/ha): 10; Plant response rating, Wheat ([19]; 125 g ai/ha): 0; Plant response rating, Wheat ([19]; 500 g ai/ha): 0
